Measurements taken from US8557864B2, “Agent having neurotrophic factor-like activity” (Nagoya Industrial Science Research Institute, priority 2007, dated 2013).

Experiments:
[1] = test system: mice under chronic mild stress; assay: Tail suspension test, compound given at the same time as stress; type: in vivo; settings: 20, 100 and 500 μg/kg intraperitoneally once per day with stress; stressed 3 week- and 1 week-administration groups
Description: Mice under established chronic mild stress (hereinafter referred to as “stress”) were used for a depression and anxiety disorder-like model animal. Stress was applied as follows. 7-week-old male ddY strain mice fed in one cage for 4 mice were used and first subjected to forced swimming for 15 minutes. Then, the mice were fed in a sloped cage for 2 days, and then rested in a normal cage for 1 day. Then, the mice were fed in a dirt cage moisturized with 200 mL of water for 1 day and then rested in a normal cage for 1 day. Then, the mice were fed in a rotational cage that rotated at 180 rpm for 1 day, and then rested in a normal cage for 1 day. […] For 0 μg/kg administration examples of controls, a phosphoric acid buffer containing 0.1% DMSO (controls were expressed as “PBS” or “0 μg/kg” in the figure shown below) was administered in an amount of 0.25 mL to each of a stressed example and a non-stressed example. […]
A site of 1 cm from the tip of the tail of a mouse was grasped by a hand, being apart from a floor from 10 cm, and an immobility time in suspension for 6 minutes was measured for 2 hours. Since the immobility time prolongs when the mouse has a depressive symptom (condition), a level of the depressive symptom (condition) can be evaluated from the length of the immobility time. […]

[2] = test system: mice under chronic mild stress; assay: Elevated plus maze test after completion of stress; type: in vivo
Description: In this test, an anxiety level can be evaluated from the time for being the open arm, and a behavior amount can be evaluated from the number of times of entering the closed arm. From the evaluations, when a mouse has an anxiety symptom (condition), the time for being in the open arm […], and thus, a level of the anxiety symptom (condition) can be evaluated from the length of the time. FIGS. 8 to 11 show the results.
Example 2 is a behavior test in which the compound 8 was administered to a mouse as well as stress was applied and a suppression effect of the compound 8 on depressive and anxiety symptoms of the mouse was examined. On the other hand, the present example is a behavior test in which only stress was applied for 3 weeks without administering the compound 8 and stress was completed and a therapeutic effect of the compound 8 on depressive and anxiety symptoms of a mouse after removing stress was examined. Stress was applied to a mouse in the same manner as in Example 2. For behavior tests of mice, the burying the glass-marbles test, the tail suspension test and the elevated plus maze test were performed respectively in the same manners as in Example 2 on groups without administering the compound 8 immediately after completion of stress for 3 weeks and groups without administering the compound 8 with no stress from the start (hereinafter referred to as “non-administration groups after completion of stress”); a group administered with the compound 8 for 1 week after completion of stress and a group administered with the compound 8 for 1 week in the same manner as the former group with no stress from the start (hereinafter referred to as “1 week-administration groups after completion of stress”); and a group administered with the compound 8 for 2 weeks after completion of stress and a group administered with the compound 8 for 2 weeks in the same manner as the former group with no stress from the start (hereinafter referred to as “2 week-administration groups after completion of stress”). […]

CCCCCCC/C=C/C(=O)OCC [Compound 8, trans-2-decenoic acid ethyl ester]
no significant difference: immobility time, stressed vs non-stressed example [1] | time for being in open arm, stressed vs non-stressed example ([2]; 500 μg/kg, 1 week-administration groups after completion of stress) | number of times of entering closed arm (behavior amount) ([2]; 1 week- and 2 week-administration groups after completion of stress, vs controls (0 μg/kg) and stressed vs non-stressed) | time for being in open arm, stressed vs non-stressed example ([2]; all administration examples, 2 week-administration group after completion of stress)
